Assay results: patent publication US4244965A, “Azetidinoyl ethers” (Beecham Group Limited, priority 1978, dated 1981)
≈ marks a conversion by molar mass, not a printed value. Where “and” joins values, the source holds several entries; their conditions need not be identical. Equal values may be shown once. Read-outs that look alike come from different tables or passages of the source.

Experiments:
Staph Russell = experiment: standard microliter MIC test (Demonstrations 3-5); assay type: cell-based; conditions: for MIC: alone
E. coli JT 410 [1] = experiment: standard microliter MIC test (Demonstrations 3-5); assay type: cell-based
Kleb E 70 = experiment: standard microliter MIC test (Demonstrations 3-5); assay type: cell-based, Klebsiella
E. coli JT 39 [2] = experiment: standard microliter MIC test (Demonstrations 3-5); assay type: cell-based; conditions: for MIC: alone
Proteus C 889 [3] = experiment: standard microliter MIC test (Demonstrations 3-5); assay type: cell-based; conditions: for MIC (ampicillin + title compound): trailing end point; for MIC: alone
Escherichia coli JT39 [4] = experiment: Amoxycillin with or without synergist, E. coli JT39 intraperitoneal infection of mice, subcutaneous (Demonstration 1a); assay type: in vivo, Escherichia coli (infected mice); conditions: JT39, sc, antibiotic alone, sub-cutaneous, 1 and 5 hours post infection, read-out: CD50 (the source's name)
Experimental: a. Sub-cutanvenous administration: Groups of mice were infected inter peritoneally with Escherichia coli JT39. At 1 and 5 hours post infection the mice were treated with amoxycillin (Amox.) or with amoxycillin and synergist. The solutions were made up in phosphate buffer.

Escherichia coli JT39 [5] = experiment: Amoxycillin with or without synergist, E. coli JT39 intraperitoneal infection of mice, oral (Demonstration 1b); assay type: in vivo, Escherichia coli (infected mice); conditions: antibiotic alone, oral, 1, 3 and 5 hours post-infection, read-out: CD50 (the source's name)
Experimental: (§1) b. Oral administration: Groups of mice were infected inter peritoneally with Escherichia coli JT39. At 1, 3 and 5 hours post-infection the mice were treated with amoxycillin or with amoxycillin and synergist. The solutions were made up in phosphate buffer.

Escherichia coli JT 39 = experiment: intra peritoneal infection due to Escherichia coli JT 39 in mice, subcutaneous dosing (Demonstration 2b); assay type: in vivo, Escherichia coli (infected mice); conditions: for ED50: Escherichia coli, JT39, sc, alone, × 2, sub-cutaneous, 1 and 5 hours post infection, read-out: C50
Experimental: b. […] Dosing was sub-cutaneous and 1 and 5 hours post infection.

Proteus C 889 [6] = experiment: conventional microliter method, MIC (Demonstration 2a); assay type: cell-based
Experimental: (§2) a. The antibacterial and synergistic activity of the title compound (referred to as "Sunergist" in the Table) was determined by a conventional microliter method.

E. coli JT 39 [7] = experiment: as above; assay type: cell-based; conditions: Escherichia coli, JT39
Experimental: as §2

Staph. aureus Russell = experiment: standard MIC test (Demonstration 1c); assay type: cell-based; conditions: Staphylococcus aureus
Pseudomonas Dalgleish = experiment: microbe, parasite or virus in culture; assay type: cell-based
Experimental: as §2

Escherichia coli JT39 [8] = experiment: standard MIC test (Demonstration 1c); assay type: cell-based
Klebsiella E70 = experiment: standard MIC test (Demonstration 1c); assay type: cell-based; conditions: alone
[9] = Signs of drug toxicity during the in-vivo tests (Demonstration 1); conditions: mice
Experimental: (§3) a. Sub-cutanvenous administration: Groups of mice were infected inter peritoneally with Escherichia coli JT39. At 1 and 5 hours post infection the mice were treated with amoxycillin (Amox.) or with amoxycillin and synergist. The solutions were made up in phosphate buffer. The results were as follows:
as §1

[10] = system: gram negative bacteria such as Escherichia and Klebsiella and gram positive bacteria such as Staphylococcus; experiment: Summary of the synergy tests with penicillins (Demonstration 1d); conditions: summary of preceding tests
Experimental: as §3, §1

Kleb. E 70 = experiment: conventional microliter method, MIC (Demonstration 2a); assay type: cell-based; conditions: Klebsiella; alone
Experimental: as §2

Staph. Russell = experiment: as above; assay type: cell-based; conditions: alone
Experimental: as §2

E. coli JT 410 [11] = experiment: as above; assay type: cell-based; conditions: Escherichia coli, JT410; alone
Experimental: as §2

[12] = Average blood levels after oral administration to dogs (Demonstration 6); assay type: in vivo; conditions: dog, 5 mg/kg
Experimental: (§4) Lithium 9-O-(azetidin-2'-on-4'-yl)clavulanate was administered orally to a group of eight dogs, weighing 9-12 kg, at a dosage of 5 mg/kg.
The level of the compound in the blood was measured after 0.25, 0.5, 1, 2, 4 and 6 hours. The results are shown in Table 1, with those for sodium clavulanate for comparison.

[13] = Urinary recovery after oral administration to dogs (Demonstration 6); assay type: in vivo; conditions: for dose excreted at 24 h: dog, urine, po, 5 mg/kg
Experimental: as §4
The urinary recovery of the compound over 24 hours was also measured.

[14] = Escherichia coli, JT410, alone, read-out: MIC
[15] = Klebsiella, E70, alone, read-out: MIC
[16] = Escherichia coli, JT39, read-out: MIC

NCC(=O)NCCOCC=C1OC2CC(=O)N2C1C(=O)O (centres unmarked) [9-O-[(N-Glycyl)-2-aminoethyl]clavulanic acid]
MIC (ampicillin + title compound) (Staph Russell; Amp. + 1 μg/ml of title comp.): 1.25 µg/mL | MIC (ampicillin + title compound) (Staph Russell; Amp. + 5 μg/ml of title comp.): 0.15 µg/mL | MIC (Staph Russell): 8 µg/mL (≈ 26.7 µM) | MIC (ampicillin + title compound) (E. coli JT 410 [1]; Amp. + 5 μg/ml of title comp.): 62.5 µg/mL | MIC (E. coli JT 410 [1]; alone): 62.5 µg/mL (≈ 209 µM) | MIC (ampicillin + title compound) (Kleb E 70; Amp. + 1 μg/ml of title comp.): 6.25 µg/mL | MIC (ampicillin + title compound) (Kleb E 70; Amp. + 5 μg/ml of title comp.): 1.5 µg/mL | MIC (Kleb E 70; alone): 62.5 µg/mL (≈ 209 µM) | MIC (ampicillin + title compound) (E. coli JT 39 [2]; Amp. + 1 μg/ml of title comp.): 31.2 µg/mL | MIC (ampicillin + title compound) (E. coli JT 39 [2]; Amp. + 5 μg/ml of title comp.): 8 µg/mL | MIC (E. coli JT 39 [2]): 31.2 µg/mL (≈ 104 µM) | MIC (ampicillin + title compound) (Proteus C 889 [3]; Amp. + 1 μg/ml of title comp.): 8 µg/mL | MIC (ampicillin + title compound) (Proteus C 889 [3]; Amp. + 5 μg/ml of title comp.): 2 µg/mL | MIC (Proteus C 889 [3]): 250 µg/mL (≈ 835 µM)

CC1(C)S[C@@H]2[C@H](NC(=O)[C@H](N)c3ccc(O)cc3)C(=O)N2[C@H]1C(=O)O [Amoxycillin, amoxycillin]
ED50 (Escherichia coli JT39 [4]): > 1000 mg/kg | ED50 (Escherichia coli JT39 [5]): > 1000 mg/kg | ED50 (Escherichia coli JT 39): > 1000 mg/kg

CC1(C)S[C@@H]2[C@H](NC(=O)[C@H](N)c3ccccc3)C(=O)N2[C@H]1C(=O)O [Ampicillin, ampicillin, reference compound]
MIC (Proteus C 889 [6]): 1000 µg/mL | MIC (E. coli JT 39 [7]): 2000 µg/mL | MIC (E. coli JT 410 [1]; Escherichia coli, JT410): 250 µg/mL (≈ 715 µM) | MIC (Kleb E 70; Klebsiella, E70): 1000 µg/mL (≈ 2860 µM) | MIC (Kleb E 70; Klebsiella, E70, alone): 500 µg/mL (≈ 1430 µM) | MIC (Staph. aureus Russell): 62 µg/mL (≈ 177 µM) | MIC (Pseudomonas Dalgleish): > 2000 µg/mL | MIC (E. coli JT 39 [2]; Escherichia coli, JT39): 2000 µg/mL (≈ 5720 µM) | MIC (E. coli JT 39 [2]): 1000 µg/mL (≈ 2860 µM) | MIC (Escherichia coli JT39 [8]): 2000 µg/mL (≈ 5720 µM) | MIC (Proteus C 889 [3]): 2000 µg/mL and > 2000 µg/mL

Cc1nnc(SCC2=C(C(=O)O)N3C(=O)[C@@H](NC(=O)Cn4cnnn4)[C@H]3SC2)s1 [Cefazolin]
ED50 (Escherichia coli JT 39): 13 mg/kg

O=C1CC(OC/C=C2\O[C@@H]3CC(=O)N3[C@H]2C(=O)O)N1 (some centres unmarked) [Example 2, Sodium 9-O-(azetidin-2'-on-4'-yl)clavulanate]
MIC (Klebsiella E70): 31.2 µg/mL | signs of drug toxicity [9]: No signs of drug toxicity were observed | MIC (Staph. aureus Russell; alone, read-out: MIC): 8 µg/mL | MIC (Escherichia coli JT39 [8]; alone, read-out: MIC): 31.2 µg/mL | synergism with penicillins such as amoxycillin [10]: effective synergist for penicillins such as amoxycillin

CC(NC=O)OC/C=C1\O[C@@H]2CC(=O)N2[C@H]1C(=O)O (some centres unmarked) [Example 9, Lithium 9-O-(1-formamidoethyl)clavulanate]
MIC (Kleb. E 70): 62.5 µg/mL | MIC (Proteus C 889 [6]; alone, read-out: MIC): 62.5 µg/mL | MIC (Staph. Russell): 8 µg/mL | MIC (E. coli JT 39 [7]; alone, read-out: MIC): 62.5 µg/mL | MIC (E. coli JT 410 [11]): 31.2 µg/mL | MIC (Pseudomonas Dalgleish): > 500 µg/mL | effect on the effectiveness of amoxycillin (Escherichia coli JT 39; with amoxycillin, sub-cutaneous): enhance the effectiveness of amoxycillin

N[C@@H]1C(=O)N[C@H]1OC/C=C1\O[C@@H]2CC(=O)N2[C@H]1C(=O)O [Example 13, 9-O-[(3S,4S)-2'-Oxo-3'-aminoazetidin-4'-yl]clavulanic acid]
MIC (Staph Russell; read-out: MIC): 62.5 µg/mL (≈ 221 µM) | MIC (E. coli JT 410 [1]; [14]): 62.5 µg/mL (≈ 221 µM) | MIC (Kleb E 70; [15]): 62.5 µg/mL (≈ 221 µM) | MIC (E. coli JT 39 [2]; [16]): 62.5 µg/mL (≈ 221 µM) | MIC (Proteus C 889 [3]; read-out: MIC): 62.5 µg/mL (≈ 221 µM)

N[C@@H]1C(=O)N[C@@H]1OC/C=C1\O[C@@H]2CC(=O)N2[C@H]1C(=O)O [Example 14, 9-O-[(3S,4R)-2'-Oxo-3'-aminoazetidin-4'-yl]-clavulanic acid]
MIC (Staph Russell; read-out: MIC): 62.5 µg/mL (≈ 221 µM) | MIC (E. coli JT 410 [1]; [14]): 62.5 µg/mL (≈ 221 µM) | MIC (Kleb E 70; [15]): 62.5 µg/mL (≈ 221 µM) | MIC (E. coli JT 39 [2]; [16]): 31.2 µg/mL (≈ 110 µM) | MIC (Proteus C 889 [3]; read-out: MIC): 62.5 µg/mL (≈ 221 µM)

O=C1CC(OC/C=C2\O[C@@H]3CC(=O)N3[C@H]2C(=O)O)N1 (some centres unmarked) [Example 27, Lithium 9-O-(2'-oxoazetidin-4'-yl)-clavulanate]
concentration at 0.25 h [12]: 1450 ng/mL | concentration at 0.5 h [12]: 3640 ng/mL | concentration at 1 h [12]: 4780 ng/mL | concentration at 2 h [12]: 3790 ng/mL | concentration at 4 h [12]: 710 ng/mL | concentration at 6 h ([12]; 6 hours): < 200 ng/mL | Urinary Recovery ([13]; 0-6 hour, Dog No. 1, 5 mg/kg): 10.8 mg | Urinary Recovery ([13]; 0-6 hour, Dog No. 2, 5 mg/kg): 14.8 mg | Urinary Recovery ([13]; 0-6 hour, Dog No. 3, 5 mg/kg): 13.1 mg | Urinary Recovery ([13]; 0-6 hour, Dog No. 4, 5 mg/kg): 29.5 mg | Urinary Recovery ([13]; 0-6 hour, Dog No. 5, 5 mg/kg): 18.5 mg | Urinary Recovery ([13]; 0-6 hour, Dog No. 6, 5 mg/kg): 9.2 mg | Urinary Recovery ([13]; 0-6 hour, Dog No. 7, 5 mg/kg): 9.25 mg | Urinary Recovery ([13]; 0-6 hour, Dog No. 8, 5 mg/kg): 12.15 mg | Urinary Recovery ([13]; 0-24 hour, Dog No. 1, 5 mg/kg): 11.7 mg | Urinary Recovery ([13]; 0-24 hour, Dog No. 2, 5 mg/kg): 17.4 mg | Urinary Recovery ([13]; 0-24 hour, Dog No. 3, 5 mg/kg): 18.8 mg | Urinary Recovery ([13]; 0-24 hour, Dog No. 4, 5 mg/kg): 29.9 mg | Urinary Recovery ([13]; 0-24 hour, Dog No. 5, 5 mg/kg): 19.6 mg | Urinary Recovery ([13]; 0-24 hour, Dog No. 6, 5 mg/kg): 10.3 mg | Urinary Recovery ([13]; 0-24 hour, Dog No. 7, 5 mg/kg): 11.1 mg | Urinary Recovery ([13]; 0-24 hour, Dog No. 8, 5 mg/kg): 12.3 mg | dose excreted at 24 h ([13]; Dog No. 1, read-out: Urinary Recovery, % over 24 hour): 20.1% | dose excreted at 24 h ([13]; Dog No. 2, read-out: Urinary Recovery, % over 24 hour): 38.6% | dose excreted at 24 h ([13]; Dog No. 3, read-out: Urinary Recovery, % over 24 hour): 32.1% | dose excreted at 24 h ([13]; Dog No. 4, read-out: Urinary Recovery, % over 24 hour): 52.4% | dose excreted at 24 h ([13]; Dog No. 5, read-out: Urinary Recovery, % over 24 hour): 37.3% | dose excreted at 24 h ([13]; Dog No. 6, read-out: Urinary Recovery, % over 24 hour): 17.2% | dose excreted at 24 h ([13]; Dog No. 7, read-out: Urinary Recovery, % over 24 hour): 19.1% | dose excreted at 24 h ([13]; Dog No. 8, read-out: Urinary Recovery, % over 24 hour): 19.5%

O=C(O)[C@H]1/C(=C/CO)O[C@@H]2CC(=O)N21 [sodium clavulanate, reference compound]
concentration at 0.25 h [12]: 960 ng/mL | concentration at 0.5 h [12]: 3110 ng/mL | concentration at 1 h [12]: 2910 ng/mL | concentration at 2 h [12]: 1680 ng/mL | concentration at 4 h [12]: 280 ng/mL
